Our source for the GI50 and TGI values is PubChem BioAssay (NCI).

Some test systems named below: A498 renal; CCRF-CEM leukemia; HCT-15 colon; HL-60(TB) leukemia; HOP-62 NSCLC; HS 578T breast; MCF7 breast; RPMI-8226 leukemia; UO-31 renal; DU-145 prostate.
Common to all, as to test: NCI anticancer screen, dose series, 48 h

Where “and” joins values, the source holds several entries; their conditions need not be identical. Identical values can stand only once.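 Compound exposure: 48 hours, 5 concentrations, 96-well plates. The concentration for 50% growth inhibition is given as GI50. At the TGI there is no net growth.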 Where only a bound is given, the exact number is not on record here.

For the molecule `O=C(CSc1ncc(-c2ccccc2)n1-c1ccccc1)Nc1ccc(-c2nc3ccccc3s2)cc1`, the GI50 in the test on A498 renal is 39.7 µM; in the test on CCRF-CEM leukemia, above 100 µM; with HCT-15 colon, above 100 µM; in the test on HL-60(TB) leukemia, above 100 µM; in the test on HOP-62 NSCLC, 5.68 µM; in the test on HS 578T breast it was 4.89 µM. Also, the results for the GI50 in the test with MCF7 breast and in the test with RPMI-8226 leukemia were 3.98 µM and above 100 µM, respectively. Besides, the TGI in the test with A498 renal was above 100 µM; with CCRF-CEM leukemia, above 100 µM; with HCT-15 colon, above 100 µM; in the test with HL-60(TB) leukemia it was above 100 µM; in the test on HOP-62 NSCLC it was above 100 µM; with HS 578T breast, 80.8 µM. For the same molecule, the TGI in the test on MCF7 breast and in the test with RPMI-8226 leukemia was above 100 µM throughout.
In the case of `COC(=O)C1=C(\O)C[C@@]2(C)CC[C@@H](C(=O)OC)C2C/C=C\1C(=O)OC` (some centres not stated), the TGI is 75.3 µM with A498 renal; above 100 µM with CCRF-CEM leukemia; above 100 µM with HCT-15 colon; above 100 µM in the test with HL-60(TB) leukemia; above 100 µM with HOP-62 NSCLC; above 100 µM in the test with RPMI-8226 leukemia. This molecule displayed a TGI in the test with UO-31 renal above 100 µM.
Consider `O=C(NC1C(=O)NNC1c1ccccc1Cl)c1ccccc1` (configuration not stated), for which the TGI in the test with A498 renal, in the test on CCRF-CEM leukemia, in the test on HCT-15 colon, in the test on HL-60(TB) leukemia, in the test with HOP-62 NSCLC and with RPMI-8226 leukemia was above 100 µM each time. The same molecule came in with a TGI with UO-31 renal above 100 µM.
Regarding `CCCCC(C(=O)CCC(=O)Nc1ccc(Cl)cc1)C(=O)C(C)C` (configuration not stated), the TGI in the test with A498 renal, in the test with CCRF-CEM leukemia, in the test on HCT-15 colon, in the test on HL-60(TB) leukemia, in the test on HOP-62 NSCLC and in the test with RPMI-8226 leukemia was above 100 µM throughout. Further, the TGI in the test on UO-31 renal is above 100 µM.
`COc1c(C)c(O)c2c(c1C)OC(c1ccccc1)CC2=O` (configuration not stated): the TGI with A498 renal is above 100 µM; in the test on CCRF-CEM leukemia, above 100 µM; in the test on HCT-15 colon, above 100 µM; with HL-60(TB) leukemia, 90.5 µM; in the test on HOP-62 NSCLC, above 100 µM; in the test with RPMI-8226 leukemia it was above 100 µM. Further, in the test on UO-31 renal, the TGI is above 100 µM.
As to `O=C(O)c1cn(C2CC2)c2cc(N3CCN(Cc4ccc5ccccc5c4O)CC3)c(F)cc2c1=O`, the GI50 was 2.09 µM in the test with A498 renal; 3.22 µM in the test with HCT-15 colon; above 100 µM in the test with HL-60(TB) leukemia; 2.45 µM in the test on HOP-62 NSCLC; 2.3 µM in the test with HS 578T breast; 3.63 µM with MCF7 breast. The TGI in the test on A498 renal is 4.67 µM; with HCT-15 colon, above 100 µM; in the test on HL-60(TB) leukemia, above 100 µM; with HOP-62 NSCLC it was 9.36 µM; with HS 578T breast it was 6.9 µM; in the test on MCF7 breast, above 100 µM.
`CC1COCCN1CC#CCOC(=O)c1cc2ccccc2oc1=O` (configuration not stated): the GI50 in the test with CCRF-CEM leukemia is above 100 µM; in the test on DU-145 prostate, above 100 µM; in the test on HCT-15 colon, above 100 µM; in the test with HL-60(TB) leukemia, above 100 µM; in the test on HOP-62 NSCLC, above 100 µM; in the test with HS 578T breast it was 62.4 µM. In addition, the GI50 in the test with MCF7 breast, in the test with RPMI-8226 leukemia and in the test on UO-31 renal was above 100 µM throughout. Moreover, the TGI in the test on CCRF-CEM leukemia, in the test on DU-145 prostate, in the test on HCT-15 colon, in the test with HL-60(TB) leukemia, in the test on HOP-62 NSCLC and in the test on HS 578T breast was above 100 µM in each case. The TGI in the test on MCF7 breast, in the test with RPMI-8226 leukemia and in the test on UO-31 renal was above 100 µM in each case.
With `Nc1nc2ncn(CC(O)COC(=O)c3ccccc3)c2c(=O)[nH]1` (configuration not stated), the TGI in the test with A498 renal, with CCRF-CEM leukemia, with HCT-15 colon, in the test with HL-60(TB) leukemia, with HOP-62 NSCLC and with RPMI-8226 leukemia was above 100 µM in each case. Further, the TGI in the test on UO-31 renal was above 100 µM.
`CC1CC(c2ccc(Cl)c(Cl)c2)=Nc2ccccc2S1` (configuration not stated): the TGI in the test on A498 renal, in the test on CCRF-CEM leukemia, in the test with HCT-15 colon, in the test with HL-60(TB) leukemia, with HOP-62 NSCLC and in the test on RPMI-8226 leukemia was above 100 µM each time. This molecule also had a TGI in the test with UO-31 renal above 100 µM.
For `Cc1[nH]n(-c2cccc(Cl)c2)c(=O)c1/C=C1\C=c2ccccc2=CC1=O`, the GI50 in the test on A498 renal was above 100 µM; in the test with CCRF-CEM leukemia, 97.5 µM; in the test with DU-145 prostate it was 70 µM; in the test with HCT-15 colon, above 100 µM; in the test with HL-60(TB) leukemia it was above 100 µM; in the test with HOP-62 NSCLC it was 31.4 µM. Moreover, the GI50 was 32.6 µM with HS 578T breast, above 100 µM with RPMI-8226 leukemia and above 100 µM with UO-31 renal. Besides, the TGI with A498 renal, in the test on CCRF-CEM leukemia, in the test with DU-145 prostate, in the test with HCT-15 colon, in the test with HL-60(TB) leukemia and in the test on HOP-62 NSCLC was above 100 µM in each case. Further, the TGI with HS 578T breast, with RPMI-8226 leukemia and in the test with UO-31 renal was above 100 µM in each case.
Consider `COc1cc(/C=C/c2cc(O)c(C/C=C(\C)CC/C=C(\C)CO)c(O)c2)cc2c1O[C@]1(C)CC[C@@H](O)C(C)(C)[C@H]1C2`, for which the GI50 in the test with DU-145 prostate was 26.4 µM; with HL-60(TB) leukemia, 0.511 µM; in the test on HOP-62 NSCLC, 7.06 µM and 12.9 µM. For the same molecule, the TGI is above 100 µM with DU-145 prostate, above 72.4 µM in the test on HCT-15 colon, 5.69 µM in the test with HL-60(TB) leukemia and above 89 µM in the test on HOP-62 NSCLC.
`O=c1c2cc(O)c(O)cc2oc2cc(O)c(C3OC(CO)C(O)C(O)C3O)c(O)c12` (configuration not stated): the TGI in the test with A498 renal, in the test with CCRF-CEM leukemia, with HCT-15 colon, in the test with HL-60(TB) leukemia, in the test on HOP-62 NSCLC and in the test with HS 578T breast was above 100 µM throughout. Also, the TGI with MCF7 breast, in the test on RPMI-8226 leukemia and with UO-31 renal was above 100 µM each time.
